From patent publication US20090048247A1, “CONDENSED ISOXALINE DERIVATIVES AS INHIBITORS OF PHOSPHODIESTERASE TYPE - IV” (priority 2005, published 2009)

What was measured:
[1] = tested on: TNF-α release, human peripheral blood mononuclear cells; test: Cell Based Assay for TNF-α Release (LPS stimulation of Human PBMNC's); conditions: PBMC, LPS 1 μg/ml, TNF-α by ELISA, comparator, 4 repetitions
Description: Human whole blood was collected in vacutainer tubes containing heparin or EDTA as an anti coagulant. The blood was diluted (1:1) in sterile phosphate buffered saline and 10 ml. was carefully layered over 5 ml Ficoll Hypaque gradient (density 1.077 g/ml) in a 15 ml conical centrifuge tube. The sample was centrifuged at 3000 rpm for 25 minutes in a swing-out rotor at room temperature. After centrifugation, interface of cells were collected, diluted at least 1:5 with PBS and washed three times by centrifugation at 2500 rpm for 10 minutes at room temperature. The cells were resuspended in serum free RPMI 1640 medium at a concentration of 2 million cells/ml. Alternatively whole blood was used.
LPS stimulation of Human PBMNC's:
PBMN cells (0.1 ml; 2 million/ml) were co-incubated with 20 μl of compound (final DMSO concentration of 0.2%) for 10 min in a flat bottom 96 well microtiter plate. Compounds were dissolved in DMSO initially and diluted in medium for a final concentration of 0.2% DMSO. LPS (1 μg/ml, final concentration) was then added at a volume of 10 μl per well. After 30 min, 20 μl of fetal calf serum (final concentration of 10%) was added to each well. […] The level of TNFα in treated wells was compared with the vehicle treated controls and inhibitory potency of compound was expressed as IC50 values calculated by using Graph pad prism.

[2] = Solubility under the experimental conditions of the PDE-IV enzyme assay
Description: The PDE-4 enzyme source used was U937 cell cytosolic fraction prepared by sonication. The enzyme reaction was carried out, with the cytosolic fraction as the enzyme source, in the presence of cAMP (1 μM) at 30° C. in the presence or absence of NCE for 45-60 min. An aliquot of this reaction mixture was taken further for the ELISA assay to determine level of cAMP in the sample. The concentration of the cAMP in the sample directly correlates with the degree of PDE-4 enzyme inhibition.

COc1ccc(C2CNC(=O)C2)cc1OC1CCCC1 (stereo not drawn) [rolipram]
IC50 [1]: ~240 nM

COc1ccc(C2=NO[C@]3(CCOC3)C2)cc1OC1CCCC1 [Compound No. 124, (S)-3-[3-(cyclopentyloxy)-4-methoxyphenyl]-1,7-dioxa-2-azaspiro[4.4]non-2-ene]
melting point: 110.5 °C

c1cc(OC2CCCC2)c(OC2CCCCCC2)cc1C1=NOC2(CCOC2)C1 (stereo not drawn) [Compound No. 119, 3-[3-(Cycloheptyloxy)-4-(cyclopentyloxy)phenyl]-1,7-dioxa-2-azaspiro[4.4]non-2-ene]
solubility under the experimental conditions [2]: insoluble
